Results on two compounds are retold here after patent US5567831A, “Non-steroidal sulfatase inhibitor compounds and their method of use” (Duguesne University of the Holy Ghost, priority 1995, dated 1996).

Series [1] has as its target T1, estrone sulfatase activity in intact MDA-MB-231 breast cancer cells (Homo sapiens, UniProt P08842).
T1 construct: host or cells: MDA-MB-231
T1 sequence (P08842 22-583): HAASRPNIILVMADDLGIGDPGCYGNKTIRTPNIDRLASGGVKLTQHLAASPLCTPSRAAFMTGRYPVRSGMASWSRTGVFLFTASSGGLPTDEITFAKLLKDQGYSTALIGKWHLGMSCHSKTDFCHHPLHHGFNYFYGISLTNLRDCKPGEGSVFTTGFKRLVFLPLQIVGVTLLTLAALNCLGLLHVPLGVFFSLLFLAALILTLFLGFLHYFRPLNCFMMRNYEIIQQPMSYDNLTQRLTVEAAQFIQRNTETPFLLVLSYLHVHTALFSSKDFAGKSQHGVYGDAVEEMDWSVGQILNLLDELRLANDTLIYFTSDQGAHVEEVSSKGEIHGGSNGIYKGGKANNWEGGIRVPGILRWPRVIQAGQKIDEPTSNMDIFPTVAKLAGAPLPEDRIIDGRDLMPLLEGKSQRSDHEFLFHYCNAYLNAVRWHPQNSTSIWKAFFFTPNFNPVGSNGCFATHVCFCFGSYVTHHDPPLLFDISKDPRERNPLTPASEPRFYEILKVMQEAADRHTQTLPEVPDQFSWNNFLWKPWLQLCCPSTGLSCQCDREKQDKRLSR
Kind of series: In vitro estrogen sulfatase assay on intact cell monolayers. It is filed as cell-based. As to conditions: intact MDA-MB-231 monolayers, 18 hours at 37° C., [3H]E1S (2 nM), inhibitor 0.1 nM to 1 μM; read-out: apparent I.C. 50, concentration of the inhibitor to inhibit 50% of the sulfatase activity in the MDA-MB-231 cells. The protocol: The in vitro sulfatase assay on intact cells involved a modification of the procedure of Duncan et al. ["Inhibition of estrone sulfatase activity by estrone 3-methylthiophosphonate", Cancer Res., Vol. 53, pp. 298-303 (1993)]. Intact nearly confluent monolayers of MDA-MB-231 (American Type Culture Collection) breast cancer cells in 6-well tissue-culture plates were washed with Hank's balanced salt solution (HBSS) and incubated for 18 hours at 37° C. with [^3 H]E1 S (5 pmol, 7×10^5 dpm) in serum-free Minimal Essential Medium (MEM) (2.5 ml) with or without test compounds (0.01 nM to 10 μM). After incubation, each dish was cooled and aliquots of the medium (0.5 ml) were pipetted into separate tubes containing 3 ml toluene. The mixture was shaken vigorously for 30 seconds and then centrifuged for 3 minutes at 2500 x g. Previous experiments have shown that >90% of estrone (E1) and <0.1% of […] (E1 S) is removed from the aqueous phase by this treatment. […] Radioactivity was determined using a Packard TriCarb scintillation counter with 50% efficiency for ^3 H. Each batch of experiments included dishes without cells (to assess apparent non-enzymatic hydrolysis of the substrate). […] Estrone sulfatase activity was determined from the amount of ^3 H-E1 tritiated estrone and ^3 H-E2 triated estradiol formed. […]

For series [2] the following is noted: rat, in vivo.

Turning to `CCCCCCCCCCCC(=O)NCCc1ccc(OS(N)(=O)=O)cc1` [N-lauroyl-(p-o-sulfamoyl) tyramine (C12), N-lauroyl-(p-o-sulfamoyl) tyramine], the IC50 in series [1] lay in the range of 1 to 2 nM. Take `C[C@]12CC[C@@H]3c4ccc(OS(N)(=O)=O)cc4CC[C@H]3[C@@H]1CCC2=O` [estrone 3-0 sulfamate]: the “estrogenicity in uterine weight gain assay” value in series [2] is on record as “estrogenic”.
